According to PubChem BioAssay (NCI):
Several values for one entry are separate records, joined by “and”; a condition that tells them apart may be missing. Identical values can stand only once.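 Method: 48-hour compound exposure of cells in 96-well plates, five concentrations, linear interpolation of endpoints. Abbreviation: GI50, concentration required for 50% inhibition of growth. TGI: concentration producing complete growth inhibition.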

What was measured:
Assay in all cases: growth of human tumour cells (NCI), 48 h
HOP-62 NSCLC = system: HOP-62 NSCLC
U251 CNS = system: U251 CNS
MALME-3M melanoma = system: MALME-3M melanoma
HS 578T breast = system: HS 578T breast
UACC-257 melanoma = system: UACC-257 melanoma
A549 NSCLC = system: A549 NSCLC
MOLT-4 leukemia = system: MOLT-4 leukemia
CAKI-1 renal = system: CAKI-1 renal
BT-549 breast = system: BT-549 breast
SK-MEL-28 melanoma = system: SK-MEL-28 melanoma
A498 renal = system: A498 renal
786-0 renal = system: 786-0 renal
K-562 leukemia = system: K-562 leukemia
HOP-92 NSCLC = system: HOP-92 NSCLC
KM12 colon = system: KM12 colon

| SMILES | TGI (HOP-62 NSCLC) | TGI (U251 CNS) | TGI (MALME-3M melanoma) | TGI (HS 578T breast) | TGI (UACC-257 melanoma) | TGI (A549 NSCLC) | TGI (MOLT-4 leukemia) | TGI (CAKI-1 renal) | TGI (BT-549 breast) | TGI (SK-MEL-28 melanoma) | TGI (A498 renal) | TGI (786-0 renal) | TGI (K-562 leukemia) | TGI (HOP-92 NSCLC) | TGI (KM12 colon) | GI50 (HS 578T breast) | GI50 (BT-549 breast) |
| --- | --- | --- | --- | --- | --- | --- | --- | --- | --- | --- | --- | --- | --- | --- | --- | --- | --- |
| Cc1[nH]c2ccccc2c1C1=CC(=O)N(c2ccccc2)C1=O | 25.5 µM | 47.7 µM | 41.9 µM | 43.5 µM | 61.5 µM | > 100 µM | > 100 µM | > 100 µM | > 100 µM | 20.5 µM | 60.3 µM | 31.4 µM | 29.8 µM | 50.9 µM |  |  |  |
| NCCCCCNOCCCN | > 100 µM | > 100 µM | > 100 µM | > 100 µM | > 100 µM | > 100 µM | > 100 µM |  | > 100 µM | > 100 µM |  | > 100 µM | > 100 µM | > 100 µM | > 100 µM |  |  |
| COc1cc2c(cc1OCCCCN1CCN(CCCCOc3cc4c(cc3OC)C(=O)N3CCC[C@H]3C=N4)CC1)N=C[C@@H]1CCCN1C2=O | > 42 µM | > 100 µM |  | > 100 µM | 0.676 µM | > 100 µM |  | 0.182 µM | 0.843 µM |  | 0.0692 µM | 41.1 µM | > 11.3 µM | 0.255 µM | 0.204 µM |  |  |
| Nc1cc(N)c(N=Nc2cccc3c(S(=O)(=O)O)cccc23)cc1N=Nc1cc([N+](=O)[O-])ccc1O | > 100 µM | > 100 µM | 64 µM | > 100 µM | 74.5 µM | 67.9 µM | > 100 µM | > 100 µM | > 100 µM |  | > 100 µM | > 100 µM | > 100 µM | 98.7 µM | > 100 µM |  |  |
| O=[N+]([O-])c1ccc2[nH]c(O)c(N=NC(=S)Nc3ccccc3)c2c1 | 21.8 µM | 16.6 µM |  | > 100 µM | 27.4 µM | 20.8 µM | > 100 µM | 15.2 µM | 19.9 µM | 52.2 µM | 13.2 µM | 17.7 µM | > 100 µM | 21.7 µM | 27 µM |  |  |
| O=C1/C(=C/c2ccc(Cl)cc2)Sc2scc(-c3cccc([N+](=O)[O-])c3)[n+]21 | > 69.7 µM | 23.6 µM |  | 43.6 µM | 10.9 µM | > 68.5 µM | 3.9 µM | 6.85 µM | 6.37 µM | 10.2 µM |  | 6.49 µM | 2.24 µM | 5.39 µM | 13.1 µM |  |  |
| CC1=C(C(=O)NC(C)(C)C)CC(C(=O)NC(C)(C)C)C(C)N1 (stereo not drawn) | > 100 µM | > 100 µM |  | > 100 µM | > 100 µM | > 100 µM | > 100 µM | > 100 µM | > 100 µM |  | > 100 µM | > 100 µM | > 100 µM | > 100 µM | > 100 µM |  |  |
| O=C1C(NS(=O)(=O)c2ccccc2)=C(N(Cc2ccccc2)Cc2ccccc2)C(=O)c2ccccc21 | > 100 µM | > 100 µM | 0.584 µM | > 100 µM | > 100 µM | > 100 µM | > 100 µM | > 100 µM | > 100 µM | > 100 µM |  | > 100 µM | > 100 µM | > 100 µM | > 100 µM |  |  |
| C(=N/NC1=NCCN1)/c1c2ccccc2c(/C=N\NC2=NCCN2)c2ccccc12 | 0.611 µM and 1.75 µM and 0.597 µM | 0.722 µM and 0.309 µM and 1.16 µM | 0.259 µM and 0.564 µM and 0.477 µM | 0.262 µM and 0.591 µM | 0.393 µM and 0.902 µM and 0.801 µM | 0.258 µM and 1.37 µM and 1.12 µM |  | 2.78 µM and 5.02 µM and 6.65 µM | 0.892 µM and 0.347 µM | 1.01 µM and 1.08 µM and 0.685 µM | 0.273 µM and 1.8 µM and 2.3 µM | 1.86 µM and 1.87 µM | 3.63 µM and 4.43 µM and 1.7 µM | 0.547 µM and 0.967 µM and 0.34 µM | 0.816 µM and 0.96 µM and 2 µM | 0.0844 µM | 0.244 µM and 0.096 µM |
| c1cc(C[S+]2CCCC2)oc1C[S+]1CCCC1 | > 100 µM | > 100 µM | > 100 µM | > 100 µM | > 100 µM | > 100 µM | > 100 µM | > 100 µM | > 100 µM | > 100 µM | > 100 µM | > 100 µM | > 100 µM |  |  |  |  |
| Cc1ccc(-n2cc(-c3ccc(Cl)cc3)c(C#N)c2N)cc1 | 31.9 µM | 27.3 µM | 33.1 µM | 17.2 µM | 27.9 µM | 43.2 µM |  | 45.3 µM | 32.1 µM | 33.2 µM | 35.6 µM | 29.1 µM | 47.9 µM | 31.5 µM |  |  |  |
| O=C1c2c(ccc3c2CCCC3)CC1Cc1ccc2c(c1)CCCC2 (stereo not drawn) | > 100 µM | > 100 µM | > 100 µM | > 100 µM | 71 µM | > 100 µM | > 100 µM |  | > 100 µM | > 100 µM | > 100 µM | > 100 µM | > 100 µM | 83.6 µM | > 100 µM |  |  |
